According to patent publication US8992977B2, “Multi-day delivery of biologically active substances” (Samos Pharmaceuticals, LLC, priority 2007, dated 2015):
Where two headings read alike, the source gives them in different places.

What was measured:
[1] = cited from earlier work
[2] = cited from earlier work; remark: listed apart in the source
[3] = cited from earlier work; for t1/2: carrier drug, as repeated in the examples
[4] = Hydrolysis of ethinyl estradiol (EE) from conjugate of Example 16; type: physicochemical; conditions: for Ethinyl Estradiol Released (%): 9:4 ethanol/0.05 M phosphate buffer pH 7.4, 37° C.
Protocol: Estradiol conjugate (33.5 mg, 0.039 mmol), prepared from Conjugate 1 as described in Example 16, was dissolved in 58 mL of a 9:4 ethanol/0.05 M aqueous phosphate buffer (pH 7.4) mixture, and the solution was shaken in a 37° C. incubator for 9 days. Six 8 mL aliquots were collected at 1-, 2-, 3-, 5-, 7-, and 9-day intervals. Estradiol release was quantified by adding 33 μL of a 0.09 M solution of butylated hydroxytoluene (BHT) in deuterochloroform as an internal standard, then comparing integrals of 1H NMR signals corresponding to the steroid and the internal standard.

[5] = cited from earlier work; for short half life from triacylglycerols (TAG) / following half life from triacylglycerols (TAG): bi-exponential pattern; for short half life from triacylglycerols (TAG): first phase; for following half life from triacylglycerols (TAG): second phase
[6] = Calculation of pharmacokinetic profile of orally delivered 3 1/2 day or 7 day pill; conditions: k 0.42
Source text: Since the release of EE is from a non-constant activity source, i.e., the concentration of the conjugate is continuously decreasing, the release of EE from the conjugate will obey a first order release and thus be proportional to the concentration of conjugate at any time t. These equations have been solved and the final equation describing the release of the EE is given by the equation Mt/M0=1−1/exp(kt), where Mt is the amount of EE released from the conjugate, M0 is the total amount of EE, Mt/M0 is the percent EE released from the conjugate, k is a proportionality constant and t is the time. The constant k was calculated from the data shown in example 17 to be 0.42. […] The pharmacokinetic profiles obtained using pills containing 150 (7 day pill) and 110 (3½ day pill) microgram equivalents of EE are shown in FIG. 1A and FIG. 1B.
As was shown in Example 18, the release from the EE conjugate is governed by the equation Mt/M0=1−1/exp(kt). The value of k was 0.42 as determined from the data of example 17. As discussed in the detailed description of illustrative embodiments, the release can be controlled by many different factors. To obtain half the release rate of EE as compared with that of conjugate of example 17, a value of k=0.22 was used. Using k=0.22 and the pharmacokinetic parameters shown in Example 18, the graphs shown in FIG. 2A and FIG. 2B were obtained. […]

[7] = Hydrolysis of ethinyl estradiol (EE) from conjugate 1; type: physicochemical; conditions: for Ethinyl Estradiol Released (%): 2:1 ethanol/0.05 M phosphate buffer pH 7.4, 37° C.
Protocol: Estradiol conjugate 1 (23.0 mg, 0.027 mmol) was dissolved in 48 mL of a 2:1 ethanol/0.05 M aqueous phosphate buffer (pH 7.4) mixture, and the solution was shaken in a 37° C. incubator for 6 days. Estradiol release was determined by integration of ^1H NMR signals obtained from three 8.5 mL aliquots, which were collected at 2-, 3-, and 6-day intervals.

[8] = cited from earlier work; remark: listed apart in the source
[9] = Table 1, alcohol moiety, 60% acetone, temperature 25
[10] = Table 1, alcohol moiety, 60% acetone, temperature 1
[11] = Table 2, acid moiety, 70% acetone, temperature 24.7
[12] = Table 2, acid moiety, water, temperature 24.7
[13] = Table 1, alcohol moiety, 70% acetone, temperature 24.7
[14] = The Pharmacological Basis of Therapeutics 10th ed., Physicians Desk Reference 58th Ed.
[15] = carotenoids, J. of Nutrition 2001, 131, 2096
[16] = Physicians Desk Reference p. 3372, 57 ed., 2003

CC(=O)OCc1ccc([N+](=O)[O-])cc1
kOH [1, 9]: 0.269 M⁻¹ s⁻¹

CC(=O)Oc1ccc([N+](=O)[O-])cc1
kOH [1, 10]: 2.2 M⁻¹ s⁻¹

CC(=O)Oc1cccc(C)c1
kOH [1, 10]: 0.09 M⁻¹ s⁻¹

CC(C)=CCC\C(C)=C/C=C/C(C)=C/C=C/C(C)=C/C=C/C=C(C)/C=C/C=C(C)/C=C/C=C(\C)CCC=C(C)C [5-Z lycopene]
half life ([2]; in vivo): 220 h

CCOC(=O)C(CC)CC [(C2H5)2CHCOOC2H5]
kOH [1, 11]: 0.000083 M⁻¹ s⁻¹

CCOC(=O)C(C)(C)C [(CH3)3CCOOC2H5]
kOH [1, 11]: 0.00022 M⁻¹ s⁻¹

CCOC(=O)C[N+](C)(C)C [(CH3)3N^+CH2COOC2H5]
kOH [1, 12]: 98.0 M⁻¹ s⁻¹

CC(=O)OC[C@H]1O[C@@H]([S-])[C@H](OC(C)=O)[C@@H](OC(C)=O)[C@@H]1OC(C)=O.CCP(CC)CC.[Au+] [Auranofin]
half life ([3]; in vivo): 408 to 600 h

CCCOC(C)=O [CH3COO(CH2)2CH3]
kOH [1, 13]: 0.027 M⁻¹ s⁻¹

CCOC(C)=O [CH3COOC2H5]
kOH [1, 13]: 0.047 M⁻¹ s⁻¹ | kOH [1, 11]: 0.047 M⁻¹ s⁻¹

CC(=O)Oc1ccccc1 [CH3COOC6H5]
kOH [1, 9]: 0.537 M⁻¹ s⁻¹

CC(=O)OC(C)(C)C [CH3COOC(CH3)3]
kOH [1, 13]: 0.00027 M⁻¹ s⁻¹

COC(C)=O [CH3COOCH3]
kOH [1, 13]: 0.108 M⁻¹ s⁻¹

CC(=O)OC(C)C [CH3COOCH(CH3)2]
kOH [1, 13]: 0.007 M⁻¹ s⁻¹

CCOC(=O)CSC [CH3SCH2COOC2H5]
kOH [1, 12]: 0.92 M⁻¹ s⁻¹

CCOC(=O)C[S+](C)[O-] (stereo not drawn) [CH3SOCH2COOC2H5]
kOH [1, 12]: 4.20 M⁻¹ s⁻¹

CCOC(=O)CCl [ClCH2COOC2H5]
kOH ([1]; Table 2, acid moiety, Water, μ = 0.2, temperature 24.7): 33.2 M⁻¹ s⁻¹

C#C[C@]1(O)CC[C@H]2[C@@H]3CCc4cc(OC(=O)CCC(=O)OC(c5cc(C(F)(F)F)nc6c(C(F)(F)F)cccc56)C5CCCCN5)ccc4[C@H]3CC[C@@]21C (stereo partly drawn) [Conjugate of Example 16]
rate of hydrolysis compared with Conjugate 1 [4]: slower than that of Conjugate 1 | Ethinyl Estradiol Released (%) ([4]; Day 1): 30% | Ethinyl Estradiol Released (%) ([4]; Day 2): 50% | Ethinyl Estradiol Released (%) ([4]; Day 3): 63% | Ethinyl Estradiol Released (%) ([4]; Day 5): 77% | Ethinyl Estradiol Released (%) ([4]; Day 7): 88% | Ethinyl Estradiol Released (%) ([4]; Day 9): 98%

CC/C=C\C/C=C\C/C=C\C/C=C\C/C=C\C/C=C\CCC(=O)O [DHA, docosahexaenoic acid]
short half life from triacylglycerols (TAG) [5]: less than a day | following half life from triacylglycerols (TAG) [5]: several days

CC(C)=CCC/C(C)=C/C=C/C(C)=C/C=C/C(C)=C/C=C/C=C(C)/C=C/C=C(C)/C=C/C=C(\C)CCC=C(C)C [E lycopene]
half life ([2]; in vivo): 120 h

CC/C=C\C/C=C\C/C=C\C/C=C\C/C=C\CCCC(=O)O [EPA, eicosapentaenoic acid]
mean half life in cholesteryl esters (CE) ([5]; Br. J. Nutr. 1999): 78.5 h | short half life from triacylglycerols (TAG) [5]: less than a day | following half life from triacylglycerols (TAG) [5]: several days

CNCCC(Oc1ccc(C(F)(F)F)cc1)c1ccccc1 (stereo not drawn) [Fluoxetine]
half life [3, 14]: 53 h | t1/2 [3]: 53 h

CCOC(=O)CN [H3N^+CH2COOC2H5]
kOH [1, 12]: 60.5 M⁻¹ s⁻¹

CCN(CCO)CCCC(C)Nc1ccnc2cc(Cl)ccc12 (stereo not drawn) [Hydroxychloroquine]
half life [3, 14]: 1220 h

OC(c1cc(C(F)(F)F)nc2c(C(F)(F)F)cccc12)C1CCCCN1 (stereo not drawn) [Mefloquine]
half life [3, 14]: 480 ± 96 h

COc1ccc2cc(CCC(C)=O)ccc2c1 [Nabumetone]
half life [3, 14]: 23 h

CNCCC=C1c2ccccc2CCc2ccccc21 [Nortriptyline]
half life [3, 14]: 31 h

CCC1(c2ccccc2)C(=O)NC(=O)NC1=O [Phenobarbital]
half life [3, 14]: 99 h

O=c1[nH]c2ccccc2n1C1CCN(CCCC(c2ccc(F)cc2)c2ccc(F)cc2)CC1 [Pimozide]
half life [3, 14]: 111 h

CNCCCC1c2ccccc2C=Cc2ccccc21 [Protriptyline]
half life [3, 14]: 78 h | t1/2 [3]: 76 h

CO[C@H]1C[C@@H]2CC[C@@H](C)[C@@](O)(O2)C(=O)C(=O)N2CCCC[C@H]2C(=O)O[C@H]([C@H](C)C[C@@H]2CC[C@@H](O)[C@H](OC)C2)CC(=O)[C@H](C)/C=C(\C)[C@@H](O)[C@@H](OC)C(=O)[C@H](C)C[C@H](C)/C=C/C=C/C=C/1C [Sirolimus]
half life [3, 14]: 62 h | t1/2 [3]: 62 h

CN(C)CCOc1ccc(/C(=C(/CCCl)c2ccccc2)c2ccccc2)cc1 [Toremifene]
half life [3, 14]: 148 h

CC1=CCCC(C)(C)[C@H]1/C=C/C(C)=C/C=C/C(C)=C/C=C/C=C(C)/C=C/C=C(C)/C=C/C1=C(C)CCCC1(C)C [alpha carotene]
half life [2, 15]: 1080 h

CC1=C(/C=C/C(C)=C/C=C/C(C)=C/C=C/C=C(C)/C=C/C=C(C)/C=C/C2=C(C)CCCC2(C)C)C(C)(C)CCC1 [beta carotene]
half life [2, 15]: 888 h

CC1=C(/C=C/C(C)=C/C=C/C(C)=C/C=C/C=C(C)/C=C/C=C(C)/C=C/C2=C(C)C[C@@H](O)CC2(C)C)C(C)(C)CCC1 [beta cryptoxanthin]
half life [2, 15]: 936 h

C#C[C@]1(O)CC[C@H]2[C@@H]3CCc4cc(OC(=O)CCC(=O)OC(c5cc(C(F)(F)F)nc6c(C(F)(F)F)cccc56)C5CCCCN5C(=O)OC(C)(C)C)ccc4[C@H]3CC[C@@]21C (stereo partly drawn) [conjugate 1]
peak to valley ratio ([6]; 1 pill every 7 days, 150 microgram equivalents of EE): 5.1 | peak to valley ratio (Css.max to Css.min) ([6]; pill once every 3½ days, 110 microgram equivalents of EE): less than two | period over which ethinyl estradiol is released ([7]; 2:1 ethanol/phosphate buffer pH 7.4, 37° C.): over a several day period | Ethinyl Estradiol Released (%) ([7]; Day 2): 57% | Ethinyl Estradiol Released (%) ([7]; Day 3): 67% | Ethinyl Estradiol Released (%) ([7]; Day 6): 100% | proportionality constant k of first order release Mt/M0=1−1/exp(kt) ([7]; calculated from the data of example 17): 0.42

C#C[C@]1(O)CC[C@H]2[C@@H]3CCc4cc(O)ccc4[C@H]3CC[C@@]21C [ethinyl estradiol]
CL/F [8, 16]: 8.1 mL/min/kg | half life [8, 16]: 18.7 h

C#C[C@]1(O)CC[C@H]2[C@@H]3CCC4=CC(=O)CC[C@@H]4[C@H]3CC[C@@]21CC [levonorgestrel]
plasma concentrations ([8]; ovulation suppression use): about 1 microgram per ml

CCCCC/C=C\C/C=C\CCCCCCCC(=O)O [linoleic acid]
t1/2 ([5]; essential fatty acids as drug carriers): 24 h

CC1=C[C@H](O)CC(C)(C)[C@H]1/C=C/C(C)=C/C=C/C(C)=C/C=C/C=C(C)/C=C/C=C(C)/C=C/C1=C(C)C[C@@H](O)CC1(C)C [lutein]
half life [2, 15]: 1820 h

CC(C)=CCC/C(C)=C/C=C/C(C)=C/C=C/C(C)=C/C=C/C=C(C)/C=C/C=C(C)/C=C/C=C(\C)CCC=C(C)C [lycopene]
half life [2, 15]: 624 h

CCCC(=O)OCC [nC3H7COOC2H5]
kOH [1, 11]: 0.088 M⁻¹ s⁻¹

CC1=C(/C=C/C(C)=C/C=C/C(C)=C/C=C/C=C(C)/C=C/C=C(C)/C=C/C2=C(C)CC(O)CC2(C)C)C(C)(C)CC(O)C1 (stereo not drawn) [zeaxanthin]
half life [2, 15]: 912 h

Gold sodium thiomalate
half life [3, 14]: 600 h

Infliximab
half life ([3]; in vivo): 228 h

Ivermectin
half life [3, 14]: 57 h
